The record followed here is article PMC8022858, “Discovery of bone morphogenetic protein 7-derived peptide sequences that attenuate the human osteoarthritic chondrocyte phenotype” (Molecular Therapy. Methods & Clinical Development, 2021).

One experiment relates to OA-HACs. The experiment is described as follows: ALP activity assay in OA-HAC cultures. It counts as cell-based, human. Conditions: three individual OA-HAC donors, 100 nM peptide, 24 h, normalized to total protein (Figure 2E). Here is the method:
Figure 2 Bioactivity of BMP7-derived peptides p[63−82] and p[113−132] on OA-HACs Complete peptide library screening quantitative real-time PCR dataset for peptides p[63−82] and p[113−132] is presented. (A) SOX9, COL2A1, and NKX3-2 mRNA expression in the 18 OA-HAC pool exposed to 1,000, 100, 10, or 1 nM of peptide p[63−82] and p[113−132] is shown and presented relative to control (black bars) and alongside full-length BMP7 (white bars). (B) Similar to (A) but for chondrocyte hypertrophy-associated genes RUNX2, COL10A1, and ALPL. (C) Similar to (A) but for cartilage extracellular matrix remodeling-associated genes MMP13 and ADAMTS5 and inflammation-related genes COX-2 and IL-6. […] (G) In the same OA-HAC pool of 18 OA-HAC donors from the peptide library screening, sequence dependency of peptides p[63−82] and p[113−132] was determined by exposing the OA-HAC pool to scrambled versions of peptides p[63−82] and p[113−132] […] Error bars represent mean ± SEM, and statistical significance for peptide conditions or BMP7 versus control condition as determined by unpaired two-tailed Student’s t test is represented as ∗p < 0.05, ∗∗p < 0.01, and ∗∗∗p < 0.001.
Cells were lysed in 1.5 M Tris-HCl (pH 9.0) and 2% (v/v) Triton X-100 and homogenized by sonication (Soniprep 150 MSE). […] Total protein concentration was determined by a BCA assay. […]

Experiment [1] relates to BRE reporter (SMAD1/5/8 dependent) in SW1353 chondrocytic cells. In words: BRE firefly luciferase reporter assay. Particulars: 8 h peptide exposure, firefly normalized to Gaussia luciferase, relative to control (Figure 5B). It counts as cell-based. On the procedure: Figure 5 Molecular characterization of peptides p[63−82] and p[113−132] (A) A pool of OA-HACs (n = 4 donors) was transfected with a scrambled siRNA or with an NKX3-2 siRNA (100 nM siRNA) and cultured for 24 h. Cultures were then exposed to peptide p[63−82] or p[113−132] (100 nM peptide). Samples were harvested 24 h later and analyzed for the expression of the indicated mRNAs (normalized to 28S rRNA). (B) SW1353 chondrocytic cells were transfected with BRE (SMAD1/5/8 reporter) or CAGA12 (SMAD2/3 reporter) firefly luciferase-reporter plasmids. A CMV-Gaussia plasmid was cotransfected as a transfection control. Cells were then cultured for 24 h and subsequently exposed to control, p[63−82], or p[113−132] for 8 h. Firefly and Gaussia bioluminescence were measured in cells and medium (respectively), and relative light units (RLUs) of firefly luciferase were normalized for the Gaussia luciferase signal. The normalized firefly luciferase signal of the control condition was set at 1, and peptide conditions were calculated relative to the control condition (FL/GL). Error bars represent mean ± SEM; statistical significance for peptide conditions versus siScrambled or siNKX3-2 (A) or control condition (B) as determined by unpaired two-tailed Student’s t test is represented as ∗p < 0.05, ∗∗p < 0.01, and ∗∗∗p < 0.001. […]
In general terms: Reporter assays use an easily measured gene product as a stand-in for the process of interest.

As for H-AAYYSEGESAFPLNSYMNAT-OH [p[63−82]], the “alkaline phosphatase (ALP) activity” value with OA-HACs is “significant decrease”. In experiment [1], the BRE reporter activity result is given as “induce”.
For H-SVLYFDDSSNVILKKYRNMV-OH [p[113−132]] the same measures were “significant decrease” and “induce”.
